This note sets out measurements from publication PMC4055767, “Selective Chemical Inhibition of agr Quorum Sensing in Staphylococcus aureus Promotes Host Defense with Minimal Impact on Resistance” (PLoS Pathogens, 2014).

The target of one experiment is T1, AgrA (Staphylococcus aureus, UniProt P0A0I7).
T1 construct: plasmid-encoded AgrA (pCM63) in S. aureus Δagr reporter strain AH3048
In words: AgrA-dependent agr::P3 lux reporter in agr-null S. aureus ([…]), positive control. Format: cell-based.

Experiment [1] addresses AgrA (AgrAC, C-terminal DNA binding domain) (Staphylococcus aureus, UniProt P0A0I7). The experiment is described as follows: EMSA with purified AgrAC and FAM-labeled […] bp DNA duplex; supported by AgrA-driven agr::P3 lux reporter in agr-null S. aureus. A general note: In EMSA bound probe runs differently from free probe, usually more slowly.

T1 sequence (P0A0I7 whole entry): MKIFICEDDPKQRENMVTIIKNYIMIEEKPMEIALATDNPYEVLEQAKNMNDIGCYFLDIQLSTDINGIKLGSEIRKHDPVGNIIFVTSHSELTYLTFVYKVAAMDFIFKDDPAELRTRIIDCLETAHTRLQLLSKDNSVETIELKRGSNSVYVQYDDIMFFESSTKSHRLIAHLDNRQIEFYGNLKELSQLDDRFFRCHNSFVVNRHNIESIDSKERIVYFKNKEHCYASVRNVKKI
AgrA (AgrAC, C-terminal DNA binding domain), sequence (P0A0I7 137-238): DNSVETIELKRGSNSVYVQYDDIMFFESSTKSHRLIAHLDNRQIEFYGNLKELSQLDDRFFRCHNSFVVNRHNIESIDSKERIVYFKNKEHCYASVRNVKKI

Regarding `O=C(O)c1cc(-c2ccc(F)cc2F)ccc1O` [diflunisal], the “AgrA-dependent agr::P3 lux reporter in agr-null S. aureus (1.56-100 μM), positiv” value on AgrA is “diflunisal and 4-phenoxyphenol, compounds published by others as inhibitors of AgrAc DNA binding ability”.

`CC(C)c1ccc(S(=O)(=O)c2n[nH]n3c2nc(=O)c2ccccc23)cc1` [savirin, 3-(4-propan-2-ylphenyl) sulfonyl-1H-triazolo [1,5-a] quinazolin-5-one] showed an IC50 in experiment [1] of 83 µM.

In general, IC50 refers to the concentration that gives 50% inhibition. A lower IC50 goes with inhibition by little substance.
